Data on 1 compound can be found in ChEMBL document CHEMBL3639084, “Heterocyclic analogs of propargyl-linked inhibitors of dihydrofolate reductase” (2014).

In this assay the target is T1, Dihydrofolate reductase (Homo sapiens, UniProt P00374).
T1 sequence (P00374 whole entry): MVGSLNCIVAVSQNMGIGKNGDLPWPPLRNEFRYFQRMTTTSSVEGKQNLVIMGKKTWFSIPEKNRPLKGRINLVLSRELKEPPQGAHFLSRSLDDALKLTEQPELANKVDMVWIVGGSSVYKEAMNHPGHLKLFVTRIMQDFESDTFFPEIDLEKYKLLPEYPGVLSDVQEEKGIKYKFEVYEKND
Kind of assay: Spectrophotometric Enzyme Assay: Compounds were evaluated in spectrophotometric enzyme assays using ChDHFR-TS and hDHFR. Inhibition constants (IC50) were measured (see Table 4). The lead compound, X, has an inhibition constant of 38 nM and modest selectivity (8-fold).

Usually IC50 stands for the concentration that gives 50% inhibition. Read a low IC50 as inhibition by little substance. For `COc1cc(-c2ccccc2C)ccc1C(C)C#Cc1c(C)nc(N)nc1N` (stereo unspecified), the IC50 turned out to be 2.77 µM.
